Data as given in patent US11166954B2, “Dihydropyrimidine compound and preparation method and use thereof” (SICHUAN KELUN-BIOTECH BIOPHARMACEUTICAL CO., LTD., priority 2016, dated 2021).
Where two headings read alike, the source gives them in different places.

Tests used:
[1] = tested on: hepatitis type B virus (HBV); experiment: Inhibition of HBV DNA replication in HepG2.2.15 cells; assay type: cell-based
Protocol: The inhibitory effect of the compounds of the present invention on hepatitis type B virus (HBV) was tested. Cytotoxicity and effects on nucleic acid (DNA) replication level of the virus (HBV) of the compounds of the present invention were tested at a virus-cell level.
HepG2.2.15 cells in the logarithmic growth phase were plated in a 96-well plate at a cell concentration of 40 cells per μL. The cells were incubated in a 5% CO2 incubator at 37° C. for 3 days; and the culture medium was replaced with a new one ([…]) before adding compounds. The concentration of the stock solution of each Example compound is 200 μM.

HepG2.2.15 cells = experiment: Cytotoxicity detection (CellTiter-Glo); assay type: cell-based; details: 4 days, highest concentration 150 μM
Protocol: (§1) The test compounds were diluted to 30 mM with DMSO, with 30 mM as the highest concentration, the compounds were subjected to three-fold serial dilution to various concentrations. 0.2 μL of the compounds at various concentrations were added to a 384-well plate, HepG2.2.15 cells having a concentration of 2000 cells per 50 μL were added to each well, and the highest concentration of the test compounds was 150 μM. 1 μL of DMSO was added to corresponding wells for control. The plate was incubated in a 5% CO2 incubator at 37° C. for 4 days; and 50 μL of CellTiter-Glo was added to each well after 4 days. The plate was read for detection, and a half cytotoxic concentration (CC50) was calculated.

[2] = target: T1, hERG potassium ion channel (Homo sapiens, UniProt Q12809); experiment: Predictor hERG Fluorescence Polarization Assay; assay type: binding; details: hERG fluorescence polarization
T1 construct: purchased
T1 sequence (Q12809 whole entry): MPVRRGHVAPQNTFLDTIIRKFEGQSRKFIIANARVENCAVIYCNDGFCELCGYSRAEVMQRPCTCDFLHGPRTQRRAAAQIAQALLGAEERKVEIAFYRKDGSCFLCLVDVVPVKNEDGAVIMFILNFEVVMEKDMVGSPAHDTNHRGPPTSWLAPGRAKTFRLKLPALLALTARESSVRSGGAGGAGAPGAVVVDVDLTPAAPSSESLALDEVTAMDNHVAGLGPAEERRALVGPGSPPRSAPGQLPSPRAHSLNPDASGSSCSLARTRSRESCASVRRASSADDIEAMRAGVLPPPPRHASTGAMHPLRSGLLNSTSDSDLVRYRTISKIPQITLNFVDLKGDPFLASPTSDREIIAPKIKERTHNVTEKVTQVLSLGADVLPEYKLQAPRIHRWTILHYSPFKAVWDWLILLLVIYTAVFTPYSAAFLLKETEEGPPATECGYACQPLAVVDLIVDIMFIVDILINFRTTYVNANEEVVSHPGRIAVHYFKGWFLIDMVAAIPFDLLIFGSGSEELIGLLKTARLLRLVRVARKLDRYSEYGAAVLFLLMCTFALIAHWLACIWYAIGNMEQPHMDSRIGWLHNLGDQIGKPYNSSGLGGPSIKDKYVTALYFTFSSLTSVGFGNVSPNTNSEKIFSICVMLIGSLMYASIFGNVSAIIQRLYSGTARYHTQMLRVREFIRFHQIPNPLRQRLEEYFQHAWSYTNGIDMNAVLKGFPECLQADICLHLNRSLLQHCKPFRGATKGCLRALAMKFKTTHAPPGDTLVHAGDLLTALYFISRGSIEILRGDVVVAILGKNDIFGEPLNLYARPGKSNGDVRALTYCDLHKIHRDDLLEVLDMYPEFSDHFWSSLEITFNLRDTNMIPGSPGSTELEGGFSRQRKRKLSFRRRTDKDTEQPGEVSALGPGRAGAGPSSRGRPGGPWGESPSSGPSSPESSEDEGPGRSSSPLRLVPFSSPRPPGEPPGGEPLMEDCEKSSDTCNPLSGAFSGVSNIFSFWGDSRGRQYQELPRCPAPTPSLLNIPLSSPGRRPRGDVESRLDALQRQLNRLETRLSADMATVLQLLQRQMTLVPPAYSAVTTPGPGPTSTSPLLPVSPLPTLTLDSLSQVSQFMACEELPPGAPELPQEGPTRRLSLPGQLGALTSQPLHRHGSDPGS
Text: In cardiac muscle cells, hERG (human Ether-a-go-go Related Gene) coded potassium channel mediates delayed rectifier potassium currents (IKr). IKr inhibition is the most important mechanism of QT interval prolongation caused by a drug.
Employing the Predictor™ hERG Fluorescence Polarization Assay, the effect of the compounds on a hERG potassium ion channel was detected.

[3] = Cytotoxicity detection (CellTiter-Glo); assay type: cell-based; details: human, HepG2.2.15 cells, highest concentration 150 μM
Protocol: as §1

[4] = In vivo pharmacokinetics (PK) in rats; details: male, SD, rat; for Kp: liver/plasma, 2 mg/kg
Protocol: (§2) The test compounds were administrated to male SD rats by intravenous (iv) and by gavage (po), respectively, the doses of the iv and po administration were respectively 1 mg/kg and 2 mg/kg, the solvent system for iv administration was 5% DMSO:5% solutol:90% physiological saline, and the solvent system for po administration was 0.5% MC. Blood was collected at multiple time points after iv administration and po administration for the PK study. Plasma samples and liver tissue samples were subjected to protein precipitation, followed by LC-MS/MS analysis. The mass spectrometer was API 5500, and the liquid chromatograph is a Waters ACQUITY I CLASS system; the chromatographic column was an Agela ASB C18 column (2.1 mm×50 mm, 1.9 μm); mobile phase A was water+0.1% formic acid, and phase B was acetonitrile; the flow rate was 0.4 mL/min, and the column temperature was 40° C. The ion source was an ESI source in a positive ion mode, and the scanning manner is multiple reaction monitoring (MRM).

[5] = In vivo pharmacokinetics (PK) in Beagle dogs; parameters: species or system male Beagle dogs; details: Beagle dog
Protocol: as §2, with “male Beagle dogs” for “male SD rats”, “respectively 0.5” for “respectively 1”, “and 2.5” for “and 2”, “samples” for “samples and liver tissue samples”, “chromatograph was” for “chromatograph is”

[6] = In vivo pharmacokinetics (PK) in cynomolgus macaques; parameters: species or system male cynomolgus macaques; details: cynomolgus macaque
Protocol: as §2, with “male cynomolgus macaques” for “male SD rats”, “respectively 0.5” for “respectively 1”, “and 2.5” for “and 2”, “samples” for “samples and liver tissue samples”, “5500,” for “5500, and”, “chromatograph was” for “chromatograph is”

CYP3A4 = CYP3A4 induction test (HepG2 C3A/pCYP3A4-Luc, C8 cells, luciferase); assay type: cell-based; details: human, HepG2 C3A/pCYP3A4-Luc, C8 cells; CYP3A4 induction, 72 hours
Protocol: (§3) A test tube of HepG2 C3A/pCYP3A4-Luc, C8 cells was taken out of a liquid nitrogen tank, the cells were recovered in a sterile water bath at 37° C.; and the test tube was gently shaken until ice completely melted. The recovered cells were transferred to a 15 mL sterile centrifuge tube, and 5-10 mL pre-heated basal cell culture medium at 37° C. was added; the cells were naturally settled for 2 minutes and centrifuged (1000 rpm) for 8 minutes. The supernatant was discarded, and the cells were re-suspended with 10 mL pre-heated cell culture medium. The cell suspension was transferred to a 10 cm cell-culture dish and incubated in a 5% CO2 incubator at 37° C. The original cell culture medium was replaced with a selective cell culture medium after 24 hours. The cells were digested after growing in 80%-90% of the culture dish, and then transferred to a 15 mL sterile centrifuge tube. Centrifugation was performed at 1000 rpm for 8 minutes, and the cells were collected. The supernatant was discarded, and the cells were re-suspended with 3 mL pre-heated complete medium. […] The supernatant was discarded, the cells were re-suspended and counted, and the suspension was diluted to 4×10^5 cells per mL. […] The fluorescence signal was measured on a plate reader. A concentration curve of the tested compounds was plotted by using software Prism 5, and the EC50 values were calculated.

CYP450 isoform 3A4 = experiment: as above; assay type: cell-based; details: at a concentration of 10 μM
Protocol: as §3

hepatitis B virus = experiment: Mouse HBV model via tail vein hydrodynamic injection (HDI); assay type: in vivo, female BALB/c mice
Protocol: The in vivo inhibitory effect on hepatitis B virus of the compound of the present invention was evaluated by employing a mouse HBV model via tail vein hydrodynamic injection (HDI).
A suspension of compound 10-227 of the present invention was prepared with a 0.5% MC solution as the solvent. Female BALB/c mice were injected with pAAV2-HBV 1.3mer (type D) plasmid DNA via tail vein hydrodynamic injection, and then divided into the control group, test group 1 and test group 2 (5 mice in each group). Oral gavage administration was initiated one day later. The control group was given the 0.5% MC solution each time. The test groups 1 and 2 each time were given compound 10-227 (in the form of the suspension prepared above) at a dosage of 1 mg/kg and 3 mg/kg, respectively. The administration was continued for 7 days, twice a day, at an administration interval of 10 hours or 14 hours. Mouse plasma was collected at different time points (e.g., 1 day, 3 days, 5 days or 7 days after the HDI), and the HBV DNA levels in the plasma samples were detected by the RT-qPCR method.
In addition, throughout the entire in vivo test, the weight and body condition of the mice were measured and observed everyday according to an IACUC (Institutional Animal Care and Use Committee) protocol.

[7] = HepG2.2.15, HBV DNA replication
[8] = male, 0.5 mg/kg, iv, 0.50 mg/kg, plasma
[9] = male, 2.5 mg/kg, po, 2.50 mg/kg, plasma
[10] = male, cynomolgus monkey, 0.5 mg/kg, iv, 0.50 mg/kg, plasma
[11] = male, cynomolgus monkey, 2.5 mg/kg, po, 2.50 mg/kg, plasma

Compound `CCOC(=O)C1=C(CN2CCC(O)C(F)(F)C2)NC(c2nccs2)=N[C@H]1c1ccc(F)cc1Cl` (single isomer, unassigned) [Isomer A of Example 4] has an EC50 ([1]; HBV DNA replication) of 0.0351 µM, a CC50 (HepG2.2.15 cells) of 43.9 µM and an IC50 [2] of over 10 µM.
For `CCOC(=O)C1=C(CN2C[C@@H](/C=C/C(=O)O)CC(F)(F)C2)NC(c2nccs2)=N[C@H]1c1ccc(F)cc1Cl` [10-230 of Example 26, (E)-3-((R)-1-(((R)-6-(2-chloro-4-fluorophenyl)-5-(ethoxycarbonyl)-2-(thiazol-2-yl)-3,6-dihydropyrimidin-4-yl)methyl)-5,5-difluoropiperidin-3-yl)acrylic Acid], the EC50 [1, 7] was 0.0112 µM, the CC50 at 4 days [3] was 137 µM and the IC50 [2] was over 10 µM. For the same compound, the Kp ([4]; po, po, 2.00 mg/kg, AUCINF liver/plasma, read-out: amount of exposure in liver relative to that in plasma) was about 10, the Kp ([4]; po, po, 2.00 mg/kg, Cmax liver/plasma, read-out: blood-drug concentration in liver relative to that in plasma) was about 10 and the AUC(0-inf) ([4]; po, 2.00 mg/kg, liver) was 2340 ng·h/mL. For the same compound, the Cmax ([4]; po, 2.00 mg/kg, liver) was 1520 ng/mL, the AUC(0-inf) ([4]; po, 2.00 mg/kg, plasma) was 236 ng·h/mL and the Cmax ([4]; po, 2.00 mg/kg, plasma) was 179 ng/mL.
For `COC(=O)C1=C(CN2CCO[C@H](/C=C/C(=O)O)C2)NC(c2nccs2)=N[C@H]1c1ccc(F)cc1Cl` [10-227 of Example 27, (E)-3-((R)-4-(((R)-6-(2-chloro-4-fluorophenyl)-5-(methoxycarbonyl)-2-(thiazol-2-yl)-3,6-dihydropyrimidin-4-yl)methyl)morpholin-2-yl)acrylic Acid], the EC50 [1, 7] was 0.01 µM, the CC50 at 4 days [3] was over 150 µM and the IC50 [2] was over 10 µM. For the same compound, the “amount of exposure in plasma relative to control compound 3” value ([5]; by gavage, 2.50 mg/kg) was “about 14 times”, the “blood-drug concentration relative to control compound 3” value ([5]; by gavage, 2.50 mg/kg) was “about 6 times” and the AUC(0-inf) [5, 8] was 8750 ng·h/mL. For the same compound, the AUC(0-t) [5, 8] was 8690 ng·h/mL, the Cmax [5, 8] was 2310 ng/mL and the AUC(0-inf) [5, 9] was 33200 ng·h/mL. For the same compound, the AUC(0-t) [5, 9] was 32900 ng·h/mL, the Cmax [5, 9] was 7200 ng/mL and the bioavailability ([5]; male, plasma, po, 2.5 mg/kg, by gavage, 2.50 mg/kg, read-out: bioavailability (F)) was 75.9%. The “amount of exposure in plasma relative to control compound 3” value ([6]; by gavage, 2.50 mg/kg) was “about 21 times”, the “blood-drug concentration relative to control compound 3” value ([6]; by gavage, 2.50 mg/kg) was “about 33 times” and the AUC(0-inf) [6, 10] was 2460 ng·h/mL. It also gave an AUC(0-t) [6, 10] of 2440 ng·h/mL, a Cmax [6, 10] of 1670 ng/mL and an AUC(0-inf) [6, 11] of 4570 ng·h/mL. It also gave an AUC(0-t) [6, 11] of 4420 ng·h/mL, a Cmax [6, 11] of 1070 ng/mL and a bioavailability ([6]; male, cynomolgus monkey, plasma, po, 2.5 mg/kg, by gavage, 2.50 mg/kg, read-out: bioavailability (F)) of 37.2%. The EC50 at 72 h (CYP3A4) was 123 µM, the “inductive effect on CYP450 isoform 3A4 relative to rifampicin” value (CYP450 isoform 3A4) was “about 29%” and the “HBV DNA level in plasma” value (hepatitis B virus; Test group 1, 1 mg/kg oral gavage twice a day, 1 day after HDI) was 1.95 ± 0.09 log (HBV DNA copies/μl). For the same compound, the “HBV DNA level in plasma” value (hepatitis B virus; Test group 1, 1 mg/kg oral gavage twice a day, 3 days after HDI) was 2.28 ± 0.17 log (HBV DNA copies/μl), the “HBV DNA level in plasma” value (hepatitis B virus; Test group 1, 1 mg/kg oral gavage twice a day, 5 days after HDI) was 2.77 ± 0.11 log (HBV DNA copies/μl) and the “HBV DNA level in plasma” value (hepatitis B virus; Test group 1, 1 mg/kg oral gavage twice a day, 7 days after HDI) was 2.77 ± 0.14 log (HBV DNA copies/μl). The “HBV DNA level in plasma” value (hepatitis B virus; Test group 2, 3 mg/kg oral gavage twice a day, 1 day after HDI) was 1.99 ± 0.09 log (HBV DNA copies/μl), the “HBV DNA level in plasma” value (hepatitis B virus; Test group 2, 3 mg/kg oral gavage twice a day, 3 days after HDI) was 1.95 ± 0.15 log (HBV DNA copies/μl) and the “HBV DNA level in plasma” value (hepatitis B virus; Test group 2, 3 mg/kg oral gavage twice a day, 5 days after HDI) was 1.57 ± 0.08 log (HBV DNA copies/μl). The “HBV DNA level in plasma” value (hepatitis B virus; Test group 2, 3 mg/kg oral gavage twice a day, 7 days after HDI) was 1.42 ± 0.31 log (HBV DNA copies/μl) and the “variation in body weight” value (hepatitis B virus; mice, during 7 days of administration, 1 and 3 mg/kg) was under 10%.
In the case of `CCOC(=O)C1=C(CN2CCO[C@H](/C=C/C(=O)O)C2)NC(c2nccs2)=N[C@H]1c1ccc(F)cc1Cl` [10-226 of Example 25, (E)-3-((R)-4-(((R)-6-(2-chloro-4-fluorophenyl)-5-(ethoxycarbonyl)-2-(thiazol-2-yl)-3,6-dihydropyrimidin-4-yl)methyl)morpholin-2-yl)acrylic Acid], the EC50 [1, 7] is reported as 0.0092 µM, the CC50 at 4 days [3] is reported as over 150 µM and the IC50 [2] is reported as over 10 µM. The bioavailability ([4]; plasma, po, by gavage, 2.00 mg/kg, read-out: bioavailability (F)) was 47.6%, the AUC(0-inf) ([4]; iv, 1.00 mg/kg, plasma) was 2400 ng·h/mL and the Cmax ([4]; iv, 1.00 mg/kg, plasma) was 2890 ng/mL. The AUC(0-inf) ([4]; po, 2.00 mg/kg, liver) was 3030 ng·h/mL, the Cmax ([4]; po, 2.00 mg/kg, liver) was 1690 ng/mL and the AUC(0-inf) ([4]; po, 2.00 mg/kg, plasma) was 2290 ng·h/mL. For the same compound, the Cmax ([4]; po, 2.00 mg/kg, plasma) was 2180 ng/mL.
In the case of `CCOC(=O)C1=C(CN2C[C@@H](F)[C@H](OCC(=O)O)C2)NC(c2nccs2)=N[C@H]1c1ccc(F)cc1Cl` [10-36 of Example 10, 2-(((3R,4R)-1-(((R)-6-(2-chloro-4-fluorophenyl)-5-(ethoxycarbonyl)-2-(thiazol-2-yl)-3,6-dihydropyrimidin-4-yl)methyl)-4-fluoropyrrolidin-3-yl)oxy)acetic acid], the EC50 [1, 7] is reported as 0.0981 µM, the CC50 at 4 days [3] is reported as over 150 µM and the IC50 [2] is reported as over 10 µM.
